Data: PubChem BioAssay (NCI)
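These data come from cells grown in 96-well plates and exposed to compound for 48 hours at five concentrations. TGI: concentration producing complete growth inhibition.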

Key:
Assay in all cases: NCI anticancer screen, dose series, 48 h
[1] = system: NCI-H23 lung
[2] = system: SN12C renal
[3] = system: MDA-N
[4] = system: PC-3 prostate
[5] = system: U251 CNS
[6] = system: OVCAR-3 ovarian
[7] = system: A498 renal
[8] = system: OVCAR-5 ovarian
[9] = system: T-47D breast

SMILES | TGI [1] | TGI [2] | TGI [3] | TGI [4] | TGI [5] | TGI [6] | TGI [7] | TGI [8] | TGI [9]
CCOC(=O)CC(=O)NC1CC2CCC1(C)C2(C)C (configuration not stated) | > 100 µM | > 100 µM | > 100 µM | > 100 µM | > 100 µM | > 100 µM | > 100 µM | > 100 µM | –
CCOC(=O)CN1CCNCCN(CC(=O)OCC)CCNCC1 | – | > 100 µM | > 100 µM | > 100 µM | > 100 µM | > 100 µM | > 100 µM | > 100 µM | > 100 µM
c1ccc(COc2ccc(CC3SCCCS3)cc2)cc1 | – | – | > 100 µM | > 100 µM | – | > 100 µM | – | – | > 100 µM
O=c1c(O)c(-c2ccc(O)cc2O)oc2cc(O)cc(O)c12 | > 100 µM | > 100 µM | > 100 µM | > 100 µM | > 100 µM | > 100 µM | – | > 100 µM | > 100 µM
CSC(SC)=C1CC(=O)Nc2ccccc2C1=O | > 100 µM | > 100 µM | > 100 µM | > 100 µM | > 100 µM | > 100 µM | > 100 µM | > 100 µM | 56.5 µM
C=C[C@@H]1OC(=O)O[C@H]1CO | > 100 µM | > 100 µM | > 100 µM | > 100 µM | > 100 µM | > 100 µM | > 100 µM | > 100 µM | –
Clc1ccc(N=C/C=C/Nc2ccc(Cl)cn2)nc1 | 32.8 µM | 28.6 µM | 28.4 µM | 27.6 µM | 20.7 µM | 26.6 µM | 34.7 µM | 30 µM | 40.9 µM
O=C(NN=C1CCN(Cc2ccccc2)CC1)C(O)(c1ccccc1)c1ccccc1 | > 100 µM | > 100 µM | – | – | > 100 µM | – | – | > 100 µM | > 100 µM
O=C(O)CC(C(=O)O)c1ccccc1[N+](=O)[O-] (configuration not stated) | > 100 µM | > 100 µM | > 100 µM | > 100 µM | > 100 µM | > 100 µM | > 100 µM | > 100 µM | > 100 µM
CC1=C(/C=C/C(C)=C/C=C/C(C)=C/C(=O)OCC2OC(n3cc(F)c(=O)[nH]c3=O)CC2OC(=O)/C=C(C)/C=C/C=C(C)/C=C/C2=C(C)CCCC2(C)C)C(C)(C)CCC1 (configuration not stated) | > 90 µM | > 31.6 µM | > 48.4 µM | > 56.2 µM | > 54.1 µM | > 39.5 µM | – | > 67.6 µM | > 64.7 µM
Cc1ccc(/C=C2\CN(C)CC3=C2OC(N)=C(C#N)C3c2ccc(C)cc2)cc1 (configuration not stated) | 62.6 µM | 35.3 µM | 38.1 µM | > 45.1 µM | > 61.1 µM | 29.8 µM | 45.2 µM | 55.7 µM | 71.2 µM
Cc1ccc(Nc2nc(=S)[nH]c3[nH]ncc23)cc1 | > 100 µM | > 100 µM | – | > 100 µM | > 100 µM | > 100 µM | > 100 µM | > 100 µM | > 100 µM
COc1c2c(c(OC)c3c1c(=O)c1ccccc1n3C)OCO2 | > 100 µM | > 100 µM | – | > 100 µM | > 100 µM | > 100 µM | > 100 µM | > 100 µM | > 100 µM
CCCCCCCCCOC(=O)c1cnc(Cl)cn1 | 33 µM | 36.9 µM | – | 24 µM | 33.9 µM | – | – | 70.8 µM | 51.2 µM
Cc1cc(-c2ccc(C(=O)O)[nH]2)on1 | > 100 µM | – | 23.7 µM | > 100 µM | > 100 µM | > 100 µM | > 100 µM | > 100 µM | –
COc1ccc2c(c1)C(N)CC2=O (configuration not stated) | > 100 µM | > 100 µM | – | 34.8 µM | > 100 µM | > 100 µM | > 100 µM | > 100 µM | > 100 µM
CCN1CC2=C(N=c3s/c(=C\c4ccc(Cl)cc4)c(=O)n3C2c2ccc(Cl)cc2)/C(=C/c2ccc(Cl)cc2)C1 (configuration not stated) | > 100 µM | – | > 100 µM | > 100 µM | > 100 µM | > 100 µM | 64.6 µM | > 100 µM | –
S=c1[nH]nc(COc2ccc3c(c2)CCCC3)n1/N=C/c1ccc(Cl)cc1 | 35.9 µM | 37.9 µM | 33.5 µM | 31.2 µM | 34.6 µM | 30.7 µM | – | 32 µM | 30.3 µM
COC(CN(C)C(=O)C(C)NC(=O)c1ccccc1)OC (configuration not stated) | > 100 µM | > 100 µM | > 100 µM | > 100 µM | > 100 µM | – | – | > 100 µM | > 100 µM
Cc1c(N2C(=O)/C(=C/C=C/c3ccccc3)N=C2c2ccccc2)c(=O)n(-c2ccccc2)n1C | 61.1 µM | 69 µM | 38.3 µM | 76.9 µM | 33 µM | 46.6 µM | – | 51.7 µM | > 100 µM
O=C(Cn1c(=O)ccn(C2OC(CO)C(O)C2F)c1=O)c1ccc(F)cc1 (configuration not stated) | > 100 µM | > 100 µM | > 100 µM | > 100 µM | > 100 µM | > 100 µM | – | > 100 µM | > 100 µM
O=c1c2ccccc2nc2n1NC(c1c(Cl)cccc1Cl)N2c1cccc(Cl)c1 (configuration not stated) | 56.7 µM | 21.9 µM | > 100 µM | 28.1 µM | 5.19 µM | 54.2 µM | – | 19.1 µM | 32.2 µM
CC(C)(C)OC(=O)[N+](=N)C(=O)C1CCC(=O)N1C(=O)OCc1ccccc1 (configuration not stated) | > 100 µM | > 100 µM | > 100 µM | > 100 µM | > 100 µM | > 100 µM | – | > 100 µM | > 100 µM
COc1c(CC=C(C)C)c(O)c(C(CC(C)C)c2c(O)c(C(C)=O)c(O)c3c2OC(C(C)(C)O)C3)c(O)c1C(C)=O (configuration not stated) | > 12.5 µM | > 12.5 µM | > 12.5 µM | – | – | > 12.5 µM | > 12.5 µM | > 12.5 µM | 8.36 µM
CC(=O)N=C(N=Nc1c(O)[nH]c2ccc(C)cc12)NC(C)=O | > 100 µM | > 100 µM | > 100 µM | > 100 µM | > 100 µM | – | > 100 µM | > 100 µM | > 100 µM
NC(=O)NC(=O)c1cnccn1 | > 100 µM | > 100 µM | > 100 µM | > 100 µM | > 100 µM | > 100 µM | > 100 µM | > 100 µM | –
COc1ccc2[nH]c(CCNC(=O)c3cc([N+](=O)[O-])cc([N+](=O)[O-])c3)cc2c1 | > 100 µM | > 100 µM | > 100 µM | > 100 µM | 78.1 µM | > 100 µM | > 100 µM | – | 90.6 µM
